In US8623661B2, “Iron chelating agent, method for producing same, method for determining amount of iron ions and method for trapping iron ions” (National University Corporation Asahikawa Medical College, priority 2008, dated 2014):

Legend:
[1] = test system: iron citrate complex ammonium salt (FAC); assay: Evaluation A: chelating ability with iron, absorbance after adding chelating agent to iron citrate complex ammonium salt (FAC) solution; assay type: binding; details: for [B] absorbance after addition of iron chelating agent / [B]-[A]: 470 nm; for [B]-[A]: minus blank
Description: Evaluation was carried out by the following evaluation method A as to whether the iron chelating agent according to Example 1 had chelating ability with iron.
335 mg of the iron chelating agent (MW:209.2) according to Example 1 was added to a 50 mL conical tube, 15 mL of Dulbecco's phosphate buffered saline (pH 7.2;1×D-PBS) was added thereto, 70 mg of sodium hydroxide (MW:40.0) crystal was added thereto, followed by vigorously stirring (shaking) for 10 minutes, and centrifugation (1000 rpm, flashing) was carried out before the lid was opened. Then, 16.75 mL of 1×D-PBS (pH 7.2) was added thereto, and an iron chelating agent solution was prepared having a total amount of 31.75 mL.
Further, 1×D-PBS (pH 7.2) was added to FAC solution (20 mM) to prepare an iron citrate complex ammonium salt solution having a concentration of iron ions of 2 mM (“FAC solution (2 mM)”).
Iron citrate complex ammonium salt solution [FAC solution (20 mM), FAC solution (2 mM)]”, and 1×D-PBS (pH 7.2) were mixed at the ratios shown in Tables 1 to 2, the absorbance of the mixture (wavelength 470 nm) was measured by using a spectrophotometer (trade name “NanoDrop ND-1000 Full-spectrum UV/Vis Spectrophotometer”, manufactured by SCRUM Corporation, UV-Vis Module, Measure), and the absorbance of blank ([A] in Tables 1 to 2) was determined. Then, 158 μL of Fe-Ser•Na (50 mM) was added to the mixture, the absorbance (wavelength 470 nm) was measured as described above, and the absorbance after addition of iron chelating agent according to Examples ([B] in Tables 1 to 2) was determined.

[2] = test system: iron nitrilotriacetate complex (Fe-NTA); assay: Evaluation B: chelating ability with iron, absorbance after adding chelating agent to iron nitrilotriacetate complex (Fe-NTA) solution; assay type: binding; details: for [B] absorbance after addition of iron chelating agent / [B]-[A]: 470 nm; for [B]-[A]: minus blank
Description: Evaluation was carried out by the following evaluation method B as to whether the iron chelating agent according to Example 1 had chelating ability with iron.
An iron chelating agent solution (Fe-Ser•Na (50 mM)) having an iron chelating agent concentration of 50 mM was prepared in the same manner as the preparation method of the iron chelating agent solution in evaluation method A of the iron chelating agent.
Ferric chloride-6 hydrate FeCl3.6H2O (MW270.30) crystals were dissolved in Milli-Q water to prepare an 80 mM solution (A liquid). Meanwhile, 160 mM of nitrilotriacetic acid solution (B liquid) was prepared by dissolving crystals of the free salt of NTA (191.14) in 6N hydrochloric acid. 10 mL of A liquid and 10 mL of B liquid was taken in a beaker, and sodium hydrogen carbonate NaHCO3 crystals were added bit by bit while stirring slowly. When gas generation was suppressed and the solution changed to a dark green color, the addition of NaHCO3 was completed. Finally, iron nitrilotriacetate complex solution “Fe-NTA solution (20 mM)” having an iron ion concentration of 20 mM made up to 40 mL was prepared.
Further, 1×D-PBS (pH 7.2) was added to Fe-NTA solution (20 mM) to prepare an iron nitrilotriacetate complex solution having a concentration of iron ions of 2 mM (“Fe-NTA solution (2 mM)”).
Iron nitrilotriacetate complex solution [Fe-NTA solution (20 mM), Fe-NTA solution (2 mM)], and 1×D-PBS (pH 7.2) were mixed at the ratios shown in Tables 3 to 4, the absorbance of the mixture (wavelength 470 nm) was measured by using a spectrophotometer (trade name “NanoDrop ND-1000 Full-spectrum UV/Vis Spectrophotometer”, manufactured by SCRUM Corporation, UV-Vis Module, Measure), and the absorbance of blank ([A] in Tables 3 to 4) was determined. Then, 158 μl of Fe-Ser•Na (50 mM) was added to the mixture, the absorbance (wavelength 470 nm) was measured as described above, and the absorbance after the addition of the iron chelating agent according to Examples ([B] in Tables 3 to 4) was determined.

[3] = FAC solution (2 mM) 0 μl + 1xD-PBS 160 μl + Fe-Ser•Na (50 mM) 158 μl
[4] = FAC solution (2 mM) 10 μl + 1xD-PBS 150 μl + Fe-Ser•Na (50 mM) 158 μl
[5] = FAC solution (2 mM) 20 μl + 1xD-PBS 140 μl + Fe-Ser•Na (50 mM) 158 μl
[6] = FAC solution (2 mM) 40 μl + 1xD-PBS 120 μl + Fe-Ser•Na (50 mM) 158 μl
[7] = FAC solution (2 mM) 80 μl + 1xD-PBS 80 μl + Fe-Ser•Na (50 mM) 158 μl
[8] = FAC solution (2 mM) 160 μl + 1xD-PBS 0 μl + Fe-Ser•Na (50 mM) 158 μl
[9] = FAC solution (20 mM) 0 μl + 1xD-PBS 160 μl + Fe-Ser•Na (50 mM) 158 μl
[10] = FAC solution (20 mM) 10 μl + 1xD-PBS 150 μl + Fe-Ser•Na (50 mM) 158 μl
[11] = FAC solution (20 mM) 20 μl + 1xD-PBS 140 μl + Fe-Ser•Na (50 mM) 158 μl
[12] = FAC solution (20 mM) 40 μl + 1xD-PBS 120 μl + Fe-Ser•Na (50 mM) 158 μl
[13] = FAC solution (20 mM) 80 μl + 1xD-PBS 80 μl + Fe-Ser•Na (50 mM) 158 μl
[14] = FAC solution (20 mM) 160 μl + 1xD-PBS 0 μl + Fe-Ser•Na (50 mM) 158 μl
[15] = Fe-NTA solution (2 mM) 0 μl + 1xD-PBS 160 μl + Fe-Ser•Na (50 mM) 158 μl
[16] = Fe-NTA solution (2 mM) 10 μl + 1xD-PBS 150 μl + Fe-Ser•Na (50 mM) 158 μl
[17] = Fe-NTA solution (2 mM) 20 μl + 1xD-PBS 140 μl + Fe-Ser•Na (50 mM) 158 μl
[18] = Fe-NTA solution (2 mM) 40 μl + 1xD-PBS 120 μl + Fe-Ser•Na (50 mM) 158 μl
[19] = Fe-NTA solution (2 mM) 80 μl + 1xD-PBS 80 μl + Fe-Ser•Na (50 mM) 158 μl
[20] = Fe-NTA solution (2 mM) 160 μl + 1xD-PBS 0 μl + Fe-Ser•Na (50 mM) 158 μl
[21] = Fe-NTA solution (20 mM) 0 μl + 1xD-PBS 160 μl + Fe-Ser•Na (50 mM) 158 μl
[22] = Fe-NTA solution (20 mM) 10 μl + 1xD-PBS 150 μl + Fe-Ser•Na (50 mM) 158 μl
[23] = Fe-NTA solution (20 mM) 20 μl + 1xD-PBS 140 μl + Fe-Ser•Na (50 mM) 158 μl
[24] = Fe-NTA solution (20 mM) 40 μl + 1xD-PBS 120 μl + Fe-Ser•Na (50 mM) 158 μl
[25] = Fe-NTA solution (20 mM) 80 μl + 1xD-PBS 80 μl + Fe-Ser•Na (50 mM) 158 μl
[26] = Fe-NTA solution (20 mM) 160 μl + 1xD-PBS 0 μl + Fe-Ser•Na (50 mM) 158 μl

O=C(O)C(CO)NCc1ccccc1O (stereo not shown) [Example 1, o-[(1-carboxy-2-hydroxyethyl)-amino-methyl]-phenol]
[B] absorbance after addition of iron chelating agent [1, 3]: 0.015
[B]-[A] [1, 3]: 0.012
[B] absorbance after addition of iron chelating agent [1, 4]: 0.027
[B]-[A] [1, 4]: 0.023
[B] absorbance after addition of iron chelating agent [1, 5]: 0.040
[B]-[A] [1, 5]: 0.035
[B] absorbance after addition of iron chelating agent [1, 6]: 0.055
[B]-[A] [1, 6]: 0.046
[B] absorbance after addition of iron chelating agent [1, 7]: 0.104
[B]-[A] [1, 7]: 0.096
[B] absorbance after addition of iron chelating agent [1, 8]: 1.181
[B]-[A] [1, 8]: 0.169
[B] absorbance after addition of iron chelating agent [1, 9]: 0.010
[B]-[A] [1, 9]: 0.010
[B] absorbance after addition of iron chelating agent [1, 10]: 0.109
[B]-[A] [1, 10]: 0.104
[B] absorbance after addition of iron chelating agent [1, 11]: 0.208
[B]-[A] [1, 11]: 0.199
[B] absorbance after addition of iron chelating agent [1, 12]: 0.405
[B]-[A] [1, 12]: 0.390
[B] absorbance after addition of iron chelating agent [1, 13]: 0.800
[B]-[A] [1, 13]: 0.771
[B] absorbance after addition of iron chelating agent [1, 14]: 1.368
[B]-[A] [1, 14]: 1.311
capture of iron ions from the iron citrate complex ([1]; conclusion from Tables 1 to 2): iron ions can be captured
chelating ability with iron ([1]; conclusion from Tables 1 to 2): has chelating ability with iron
[B] absorbance after addition of iron chelating agent [2, 15]: 0.011
[B]-[A] [2, 15]: 0.007
[B] absorbance after addition of iron chelating agent [2, 16]: 0.017
[B]-[A] [2, 16]: 0.014
[B] absorbance after addition of iron chelating agent [2, 17]: 0.026
[B]-[A] [2, 17]: 0.023
[B] absorbance after addition of iron chelating agent [2, 18]: 0.041
[B]-[A] [2, 18]: 0.036
[B] absorbance after addition of iron chelating agent [2, 19]: 0.075
[B]-[A] [2, 19]: 0.071
[B] absorbance after addition of iron chelating agent [2, 20]: 0.135
[B]-[A] [2, 20]: 0.125
[B] absorbance after addition of iron chelating agent [2, 21]: 0.008
[B]-[A] [2, 21]: 0.005
[B] absorbance after addition of iron chelating agent [2, 22]: 0.081
[B]-[A] [2, 22]: 0.077
[B] absorbance after addition of iron chelating agent [2, 23]: 0.163
[B]-[A] [2, 23]: 0.153
[B] absorbance after addition of iron chelating agent [2, 24]: 0.322
[B]-[A] [2, 24]: 0.296
[B] absorbance after addition of iron chelating agent [2, 25]: 0.731
[B]-[A] [2, 25]: 0.676
[B] absorbance after addition of iron chelating agent [2, 26]: 1.244
[B]-[A] [2, 26]: 1.132
capture of iron ions from an iron nitrilotriacetate complex ([2]; conclusion from Tables 3 to 4): iron ions can be captured
chelating ability with iron ([2]; conclusion from Tables 3 to 4): has chelating ability with iron
